What was measured:
C. albicans = C. albicans viability assay based on colony-forming unit (CFU) counting; format: cell-based, Candida albicans; settings: 60 μg/mL, 6 hours in 0.85% NaCl buffer
Procedure: To further examine the effect of brominated furanones on fungal growth and understand whether BFs are fungicidal agents to C. albicans, BF1 was used as the representative compound in a viability assay based on colony-forming unit (“CFU”) counting. An overnight culture of C. albicans was sub-cultured in 100 mL of SD medium to an initial OD600 of 0.005 and was grown for 24 hours. The cells were then harvested by centrifugation at 4,500 rpm for 5 minutes at room temperature and washed twice with 0.85% NaCl buffer. Then the cells were resuspended in 0.85% NaCl buffer and supplemented with 0, or 60 μg/mL BF1, BF8, BF9, BF10, BF11, BF12, or BF14 to an OD600 of 2.0 using 17×100-mm polystyrene test tubes (Fisher Scientific). After incubation at 30° C. for 6 hours with shaking at 200 rpm, the treated cells were spread on Yeast Extract Peptone Dextrose (YPD) plates containing 20 g/L peptone, 10 g/L yeast extract, 20 g/L dextrose and 15 g/L agar. The colony-forming units (CFUs) on the plates were counted after 24 hours of incubation at 30° C. to evaluate the killing of C. albicans by furanones. Duplicate samples for each furanone were tested and five agar plates were counted for each sample.

[1] = test system: Candida albicans strain SC5341; experiment: C. albicans growth curves in SD medium with furanones (96-well plates, OD600); format: cell-based; settings: tested 2.5, 5, 10, 20 μg/mL
Procedure: To evaluate the effects of furanones on fungal growth, C. albicans was grown in a synthetic dextrose (“SD”) medium supplemented with 0, 2.5, 5, 10, or 20 μg/mL of one of eight different brominated furanones and […] furanones (BF1, BF8, BF9, BF11, BF12, BF14, NF1, NF2, or NF3).
The Candida albicans strain SC5341 used in this study was provided by Dr. Sean Palecek from the University of Wisconsin-Madison. C. albicans was routinely grown overnight at 30° C. and shaken at 200 rpm in a SD medium containing 0.67% (wt/vol) yeast nitrogen base without amino acids and 2% (wt/vol) dextrose, which was buffered with 0.165 M morpholinepropanesulfonic acid (MOPS, Sigma), and pH-adjusted to 7.0 with solid NaOH. The overnight culture was then sub-cultured in 25 mL of fresh SD medium to an initial optical density at 600 nm (OD600) of 0.005 and grown till the OD600 reached 1.0. The OD600 values were measured using a Spectronic GENESYS 5 UV-Vis spectrophotometer (Thermo Fisher Scientific®, Waltham, Mass.). This culture was used to inoculate sterile 96-well plates (Costar® No. 9017, Corning®, Corning, N.Y.) containing SD medium supplemented with furanones at different concentrations (0, 2.5, 5, 10, 20 μg/mL) to an OD600 of 0.06 in at least duplicates. The BF1, 8, 9, 11, 12, 14 and NF1-3 compounds were dissolved in ethanol at a concentration of 20 mg/mL. The BF10 compound was dissolved in methanol at a concentration of 20 mg/mL. The amounts of methanol and ethanol were adjusted to be the same for each sample to eliminate the effects of solvents. The samples were then incubated at 30° C. with shaking at 200 rpm, and the OD600 in each well was measured at 0, 4, 7, 17, and 42 hours after inoculation, using an ELx808™ Absorbance Microplate Reader (BioTek Instruments® Inc., Winooski, Vt.).

E. coli = E. coli growth inhibition (results not shown); format: cell-based; settings: at / up to 60 μg/mL

Row | Structure (SMILES) | reduction of CFU (C. albicans) | lowest concentration showing growth inhibition [1] | growth inhibition of E. coli (E. coli)
1 | O=C1OC(=C(Br)Br)C=C1C(Br)Br [BF10, 3-(dibromomethyl)-5-(dibromomethylene)furan-2-one] | 100% | 20 µg/mL | 
2 | CCCCC1=C(Br)/C(=C/Br)OC1=O [BF1, 4-bromo-5Z-(bromomethylene)-3-butylfuran-2-one] |  | 20 µg/mL | 
3 | CC1=C(Br)/C(=C/Br)OC1=O [BF8, 4-bromo-5Z-(bromomethylene)-3-methylfuran-2-one] | 50% | 5 µg/mL | did not inhibit
4 | CC1=CC(=C(Br)Br)OC1=O [BF9, 5-(dibromomethylene)-3-methylfuran-2-one] |  | 20 µg/mL | does not inhibit

— patent US8530680B2, “System and method for controlling growth of microorganisms with brominated furanones” (Syracuse University, priority 2008, dated 2013)
